PMC12119673, “Apoptotic cell death induced by copper (II), manganese (II) and silver (I) complexes containing bridging dicarboxylate and 1,10-phenanthroline ligands: one of the multi-modes of anticancer activity?” (Biometals, 2025)
Read-outs that look alike come from different tables or passages of the source.

Legend:
Assay type in all cases: cell-based, human
MCF-12A cells = assay: In vitro cytotoxicity assessment, alamar blue assay, 24-h exposure
Protocol: The MCF-7 (human breast cancer) and MCF-12A (non-tumourigenic human breast) cell lines were obtained from the Technological University Dublin (TUDublin, City Campus) internal cell bank and commercially from the American Type Culture Collection (ATCC), respectively. Both cell lines were cultured using Dulbecco’s Modified Eagle Medium/Nutrient Mixture F-12 Ham (DMEM-F12) (Sigma, Ireland) (Cat# D6421) media. The MCF-7 media was supplemented with 10% Foetal Bovine Serum (Sigma, Ireland) (Cat# F7524) and 1% L-Glutamine (Sigma, Ireland) (Cat# 592020C). The MCF-12A media was supplemented with 5% Equine Serum (Sigma, Ireland) (Cat# H0146) 1.25% L-Glutamine (Sigma, Ireland) (Cat# 592020C), 20 ng/ml Human Epidermal Growth Factor (Thermo Fisher Scientific, Ireland) (Cat# PHG0313), 0.01 mg/ml insulin (Thermo Fisher Scientific, Ireland)(Cat# 12585014) and 500 ng/ml hydrocortisone (Sigma, Ireland) (Cat# H0888). The cells were grown in T75 culture flasks (Sarstedt, Germany) (Cat# 83.3911.002) and were incubated in a 5% CO2 atmosphere at 37 ℃. The cells were monitored daily, and once 80–90% confluence was reached, they were subcultured with an enzymatic dissociation method using trypsin. Both cell lines were routinely subcultured for 1 week prior to beginning experimental work, to ensure the cells had adapted to the environment.
The MCF-7 and MCF-12A cells were seeded at a density of 1 × 10^4 in 96-well flat bottom plates (Sarstedt, Germany) (Cat# 83.3924) and incubated in a 5% CO2 atmosphere at 37 ℃ for 24 h prior to exposure to the complexes. Following the incubation period, the media was removed, and cells were washed with sterile phosphate-buffered saline (PBS). […] All agents were diluted in supplemented cell culture media, and the cells were exposed to a concentration range of 0.5 μM–100 μM for 24 h in the conditions outlined previously. Following the exposure period, the drug-containing media was removed, and cells were washed three times with PBS, ensuring complete removal of the test agents. A 5% working solution of Alamar Blue (Thermo Fisher Scientific, Ireland) (Cat# DAL1100) was prepared in dark conditions using unsupplemented cell culture media. 100 μl of the solution was added to each well, and the cells were incubated for 3 h. Following incubation, absorbance values were obtained using a Varioskan Lux (Thermo Scientific, USA) at 570 nm and 600 nm wavelengths. Each exposure was carried out in triplicate plates and was repeated three independent times.
The software packages Microsoft^Ⓡ Excel (USA) and GraphPad Prism (Ver. 10.0.3) (GraphPad, USA) were used to analyse the alamar blue data. The treated sample values were first normalised to the negative control values. After normalisation, the mean and standard deviations (SD) were established using Microsoft^Ⓡ Excel. The statistical analysis package GraphPad was then used to determine the IC25 and IC50 concentrations. […] A p value of 0.05 or lower is considered to be statistically significant.

MCF-7 cells [1] = assay: as above
Protocol: The MCF-7 (human breast cancer) and MCF-12A (non-tumourigenic human breast) cell lines were obtained from the Technological University Dublin (TUDublin, City Campus) internal cell bank and commercially from the American Type Culture Collection (ATCC), respectively. Both cell lines were cultured using Dulbecco’s Modified Eagle Medium/Nutrient Mixture F-12 Ham (DMEM-F12) (Sigma, Ireland) (Cat# D6421) media. The MCF-7 media was supplemented with 10% Foetal Bovine Serum (Sigma, Ireland) (Cat# F7524) and 1% L-Glutamine (Sigma, Ireland) (Cat# 592020C). The MCF-12A media was supplemented with 5% Equine Serum (Sigma, Ireland) (Cat# H0146) 1.25% L-Glutamine (Sigma, Ireland) (Cat# 592020C), 20 ng/ml Human Epidermal Growth Factor (Thermo Fisher Scientific, Ireland) (Cat# PHG0313), 0.01 mg/ml insulin (Thermo Fisher Scientific, Ireland)(Cat# 12585014) and 500 ng/ml hydrocortisone (Sigma, Ireland) (Cat# H0888). The cells were grown in T75 culture flasks (Sarstedt, Germany) (Cat# 83.3911.002) and were incubated in a 5% CO2 atmosphere at 37 ℃. […] Following the incubation period, the media was removed, and cells were washed with sterile phosphate-buffered saline (PBS). […] Following the exposure period, the drug-containing media was removed, and cells were washed three times with PBS, ensuring complete removal of the test agents. A 5% working solution of Alamar Blue (Thermo Fisher Scientific, Ireland) (Cat# DAL1100) was prepared in dark conditions using unsupplemented cell culture media. 100 μl of the solution was added to each well, and the cells were incubated for 3 h. […] Each exposure was carried out in triplicate plates and was repeated three independent times. The software packages Microsoft^Ⓡ Excel (USA) and GraphPad Prism (Ver. 10.0.3) (GraphPad, USA) were used to analyse the alamar blue data. The treated sample values were first normalised to the negative control values. After normalisation, the mean and standard deviations (SD) were established using Microsoft^Ⓡ Excel. The statistical analysis package GraphPad was then used to determine the IC25 and IC50 concentrations.

MCF-7 cells [2] = assay: Apoptosis induction, Annexin V / propidium iodide flow cytometry; conditions: MCF-7, IC25 concentration, 24 h
Protocol: MCF-7 and MCF-12A cells were seeded at a density of 1 × 10^5 in T25 flasks (Sarstedt, Germany) and incubated for 24 h at 37 °C with 5% CO2 allowing for attachment. Post -incubation, the media was removed, cells were washed with sterile PBS and then treated using IC25 concentrations established from the in vitro cytotoxicity screen. […] After the exposure period, the cells were enzymatically detached using trypsin, collected and centrifuged at 1200RPM for 10 min. The cells were then washed with PBS, re-centrifuged and resuspended in 1 ml of annexin binding buffer. Prior to staining, the concentration of each sample was adjusted to 1 × 10^6 cells/ml. The cells were stained with 1 μl of propidium iodide (PI) (Sigma, Ireland) (Cat #P4864) and 2 μl of Annexin V (Thermo Fisher Scientific, Ireland) (Cat #A13199). The cells were incubated at room temperature for 15 min prior to analysis. The staining process was completed in the dark to eliminate interference with photo-sensitive reagents. Immediately prior to analysis by flow cytometry, 400 μl of annexin binding buffer was added to each sample. Samples were analysed using a (CytoFLEX) (Beckman Coulter, USA). The AV/PI assay was completed three independent times.
(§1) Flow cytometry data analysis was performed with the CytExpert package (Ver. 2.4) (Beckman Coulter, USA) and Microsoft^Ⓡ Excel (USA). The mean MFI and percentage cells were calculated using these packages, followed by one-way ANOVA analysis with post hoc Bonferroni correction using GraphPad Prism (Ver. 9.4) (GraphPad, USA).
The induction of apoptosis was analysed in MCF-7 and MCF-12A cells using the Annexin V and Propidium Iodide assay with flow cytometry. […] The assay allows for the differentiation of viable, apoptotic and necrotic cells based on the selective staining of Annexin V and PI. Annexin V binds to phosphatidylserines externalised to the outer leaflet of the plasma membrane during apoptosis; and PI is a membrane impermeable dye that binds to DNA of necrotic cells with compromised plasma membranes.

[3] = tested on: apoptotic genes in MCF-12A cells; assay: Apoptosis-related gene expression, qRT-PCR; conditions: IC25 concentration, 24 h, relative to negative control
Protocol: (§2) A broad scope of molecular targets involved in the apoptotic pathway were selected for analysis using qRT-PCR including initiators, mediators and inhibitors. These gene targets along with their cellular location and associated primer set are outlined in Table 2. Primer sets for each gene were designed using NCBI nucleotide sequences and the Primer3 application (Table 3). Once designed, the primers were synthesised by Sigma Aldrich, Ireland.
(§3) MCF-7 and MCF-12A cells were seeded at a density of 1 × 10^5 in T25 flasks and incubated for 24 h allowing for attachment. Following incubation, the seeding media was removed, and the cells were washed with PBS. […] Post-exposure, RNA was isolated from the cells. Tri-reagent^Ⓡ (Sigma, Ireland) (Cat# T9424) was added to the cells followed by centrifugation at 300 g for 5 min. The RNA was precipitated using chloroform, followed by centrifugation and washing of the pellet using 75% ethanol. The RNA was resuspended in 30 μl of nuclease-free water. The RNA was either used immediately for qRT-PCR or stored at −80 ℃. The RNA from each sample was quantified using the NanoDrop™ 2000 Spectrophotometer (Thermo Fisher Scientific, Ireland). The A260/A230 ratio was measured to ensure the purity of each sample. Prior to cDNA synthesis, all samples were adjusted to a concentration of 100 ng. The RNA was then reverse transcribed into cDNA using the Quanta Biosciences Kit (Quanta Biosciences, USA) (Cat# 95047). Using the SimpliAmp Thermal Cycler (Applied Biosystems; Thermo Fisher Scientific, Ireland), the following settings were applied: 5 min at 22 ℃, 30 min at 42 ℃, 5 min at 85 ℃; samples were then maintained in an indefinite hold at 4 ℃ prior to being used for quantitative real-time PCR. The cDNA templates were amplified and analysed using SYBR™ Green (Fisher Scientific, UK) (Cat#10187094). Using the 7500 fast Real-Time PCR System (Applied Biosystems, USA), the following thermal cycling setting were applied for amplification: Pre-Incubation (1 cycle) 95 ℃, 5 Minutes, 4.4 ℃ ramp; Amplification (45 cycles) 95 °C 10 s ramp 4.4 °C, 60 °C 10 s ramp 2.2 °C, 72 °C 10 s ramp 4.4 °C; Melting Curve (1 cycle) 95 °C 5 s ramp 4.4 °C, 65 °C 1 min ramp 2.2 °C, 97 °C continuous ramp 0.11 °C acquisition 10 per °C; Cooling (1 cycle) 40 °C 10 s ramp 1.5 °C. Two reference genes, actin and tubulin, were employed to determine the expression of the target genes. No template controls were included to confirm the absence of template contamination and auto-fluorescence. Each PCR plate contained three technical replicates per sample and gene target, with each experiment repeated three independent times using three individual biological replicates.
(§4) qRT-PCR data was analysed by first using the Vandesompele method to calculate the geometric mean of Ct values for the reference genes, actin and tubulin. These values were used for normalisation of the target gene expression values which were then calculated using the Livak and Schmittgen formula: 2^−ΔCt1(test)−ΔCt2(control) (Livak and Schmittgen [2001]; Vandesompele et al. [2002]).
(§5) The expression profiles (Fig. 4) display the log(2) transformed mean expression value for each gene target relative to the negative control. Expression values for each target were determined relative to the geometric means of reference genes. […] Each graph contains a threshold line, set at the value of one, this represents baseline expression levels of genes.

[4] = tested on: apoptotic genes in MCF-7 cells; assay: Apoptosis-related gene expression, qRT-PCR; conditions: MCF-7, IC25 concentration, 24 h, relative to negative control
Protocol: as §2, §3, §4, §5

[5] = tested on: caspase-3/7 in MCF-7 cells; assay: Caspase 3/7 expression, FLICA (FAM-DEVD-FMK) flow cytometry; conditions: MCF-7, IC25 concentration, 24 h
Protocol: The expression of caspase-3/7 in MCF-7 and MCF-12A cells was determined using the VybrantTM FAM™ Caspase-3 and Caspase-7 Assay Kit (Cat# V35118) (Thermo Fisher Scientific, Ireland). Cells were seeded at a density of 1 × 10^5 in T25 flasks and incubated in routine conditions for 24 h. […] Post-exposure, the cells were harvested for staining.
as §1
The expression of caspase-3/7 was analysed in MCF-7 and MCF-12A cells using fluorescent labelled inhibitors of caspase (FLICA): FAM-DEVD-FMK. […] Following the apoptosis induction study, it was of interest to determine whether the complexes were stimulating the executioner caspases triggering the irreversible proteolytic degradation of cells, culminating in cell death. […] These three complexes were selected based on their structural similarities, while incorporating alternative metal centres.

[6] = MCF-12A, 24-h exposure, 25% reduction in metabolic activity, mean ± SD (N = 3)
[7] = MCF-12A, 24-hour exposure, per one metal centre, mean ± S.D. (N=3)
[8] = MCF-12A, 24-hour exposure, per one metal centre, mean ± S.D. (N=3), read-out: IC50 calculated per one metal centre
[9] = MCF-7, 24-h exposure, 25% reduction in metabolic activity, mean ± SD (N = 3)
[10] = MCF-7, 24-hour exposure, per one metal centre, mean ± S.D. (N=3)
[11] = MCF-7, 24-hour exposure, per one metal centre, mean ± S.D. (N=3), read-out: IC50 calculated per one metal centre

Row | SMILES | Cytotoxic activity IC25 ± SD (MCF-12A cells; [6]) | IC50 (MCF-12A cells; MCF-12A, 24-h exposure, 50% reduction in metabolic activity, mean ± SD (N = 3), read-out: Cytotoxic activity IC50 ± SD) | IC25 calculated per one metal centre (MCF-12A cells; [7]) | IC50 (MCF-12A cells; [8]) | Cytotoxic activity IC25 ± SD (MCF-7 cells [1]; [9]) | IC50 (MCF-7 cells [1]; MCF-7, 24-h exposure, 50% reduction in metabolic activity, mean ± SD (N = 3), read-out: Cytotoxic activity IC50 ± SD) | IC25 calculated per one metal centre (MCF-7 cells [1]; [10]) | IC50 (MCF-7 cells [1]; [11]) | Decrease in toxicity compared to phen-containing complex 4 (MCF-7 cells [1]; Ag(I) pre-cursor vs complex 4) | Decrease in toxicity compared to phen-containing complex 5 (MCF-7 cells [1]; Ag(I) pre-cursor vs complex 5) | Necrotic population (% cells) (MCF-7 cells [2]) | Caspase gene expression (caspase-9, -8, -3) [3] | Pro-apoptotic gene expression (BID, BIM, BAD, BAX) [3] | Caspase gene expression (caspase-9, -8, -3) [4] | Pro-apoptotic gene expression (BID, BIM, BAD, BAX) [4] | Expression of caspase-3/7 (% cells) [5] | Cytotoxic activity IC25 ± SD (MCF-12A cells) | IC50 (MCF-12A cells) | Cytotoxic activity IC25 ± SD (MCF-7 cells [1]) | IC50 (MCF-7 cells [1])
1 | O.O=C([O-])CCCCCCC(=O)[O-].[Mn+2] [Complex 8, [Mn(oda)]⋅H2O] | > 100 µM | > 100 µM | >100  µM | > 100 µM | > 100 µM | > 100 µM | >100  µM | > 100 µM | – | – | – | – | – | – | – | – | – | – | – | –
2 | O=C([O-])CCCCCCC(=O)[O-].[Ag+].[Ag+] [Complex 6, [Ag2(oda)]] | 6.43 ± 4.9 µM | – | 12.86 ± 9.80 µM | – | 13.90 ± 2.93 µM | – | 27.80 ± 5.86 µM | – | approximately twofold | ~3.5 fold | high necrotic populations | – | – | – | – | – | – | – | – | –
3 | N.N.[Cl][Pt][Cl] [Cisplatin, reference compound] | – | – | – | – | – | – | – | – | – | – | – | all caspases seen to be activated | pro-apoptotic BIM and BAD were upregulated | all caspases seen to be activated | pro-apoptotic BIM and BAD were upregulated | lowest expression levels | – | – | – | –
4 | O=C([O-])CCCCCCC(=O)[O-].O=C([O-])CCCCCCC(=O)[O-].[Cu+2].[Cu+2] [Complex 3, [Cu2(oda)2]] | – | – | >100  µM | > 100 µM | – | – | >100  µM | > 100 µM | – | – | – | – | – | – | – | – | > 100 µM | > 100 µM | > 100 µM | > 100 µM
